The record followed here is the Deep4Chem optical property database.

The nature of the data set: solvent given as SMILES.

Several values for one entry are separate records, joined by “and”; a condition that tells them apart may be missing. Equal entries are not always repeated.

Regarding `Cc1cc(=O)oc2c1cc(Br)c1occ(C)c12`, the emission maximum is, setting by setting: (in C1CCCCC1) 400 nm; (in C1COCCO1) 407 nm; (in CC#N) 413 nm; (in CCO) 416 nm; (in OCC(F)(F)F) 426 nm.
As to `COc1ccc2c(C#N)cc3ccc4cc(C#N)c5ccc(OC)cc5c4c3c2c1`, under “in ClC(Cl)Cl”, the emission maximum amounted to 426 nm.
As to `c1ccc(-n2c(-c3cccc4ccccc34)nc3c4cccc5ccc6cccc(c6c54)c32)cc1`, the emission maximum was determined as 422.46 nm (in C1CCOC1); 384 nm (in CCCCCC); 436 nm (in CS(C)=O); 420 nm (in Cc1ccccc1); 424.78 nm (in ClCCl).
`CN(C)c1ccc2nc(-c3ccccc3)sc2c1Cl`: the emission maximum reads like this: (in C1CCCCC1) 389 nm; (in CC#N) 466 nm; (in CC(C)O) 477.17 nm; (in CO) 472 nm; (in CS(C)=O) 465.05 nm; (in ClC(Cl)Cl) 437 nm. In addition, where the note is “in c1ccccc1”, the emission maximum is 425.86 nm.
Compound `c1ccc(-n2c(-c3ccc(-n4c5ccccc5c5ccccc54)cc3)nc3nccnc32)cc1` came in with an emission maximum (in CC#N) of 490 nm.
In turn, `C1=Cc2ccccc2C(=Cc2ccc(C=C3c4ccccc4-c4ccccc43)cc2)c2ccccc21` gave an emission maximum (in C1CCOC1) of 444 nm.
As for `CCn1c2ccccc2c2cc(/C=C/c3cc(/C=C/c4ccc5c(c4)c4ccccc4n5CC)ncn3)ccc21`, the emission maximum runs as follows: (in C1CCOC1) 463 nm; (in CCOC(C)=O) 460 nm; (in CN(C)C=O) 500 nm; (in Cc1ccccc1) 440 nm; (in ClCCl) 492 nm.
Under “in C1CCCCC1”, `COc1ccc2c3c(c4ccc(OC)cc4c2c1)C(C)(C)c1cc(-c2ccccc2)ccc1-3` had an emission maximum of 392 nm.
Compound `CCN1C(=CC2=C([O-])C(=CC3=[N+](CC)c4ccccc4C3(C)C)C2=O)C(C)(C)c2ccccc21` showed an emission maximum (in CO) of 644 nm and an emission maximum (in ClC(Cl)Cl) of 645 nm.
Regarding `CCn1c2ccccc2c2cc(-c3cc(-c4ccc5c(c4)c4ccccc4n5CC)nc(-c4ccccc4)n3)ccc21`, the emission maximum (in C1CCOC1) is on record as 391 nm; the emission maximum (in CCOC(C)=O) stood at 389 nm; the emission maximum (in CN(C)C=O) was 415 nm; the emission maximum (in Cc1ccccc1) came to 380 nm; the emission maximum (in ClCCl) is given as 405 nm.
In the case of `CCC1=C(C)C2=C(C)c3c(C)c(CC)c(C)n3[B-](F)(F)[N+]2=C1C`, the emission maximum by setting is: (in C1CCCCC1) 537.2 nm; (in C1CCOC1) 534 nm; (in C1COCCO1) 533.2 nm; (in CC#N) 530.4 nm; (in CC(C)=O) 532 nm; (in CC(C)O) 534 nm. The emission maximum was 534.4 nm (in CCC(C)C); 533.6 nm (in CCCCCC); 535.2 nm (in CCCCCCCC); 534.8 nm (in CCCCCCCCCCO); 534.4 nm (in CCCCCCCCO); 534.8 nm (in CCCCCCO). Moreover, the emission maximum runs as follows: (in CCCCO) 534.4 nm; (in CCCO) 534 nm; (in CCO) 532.4 nm; (in CCOC(C)=O) 531.6 nm; (in CCOCC) 532.8 nm; (in CN1CCCC1=O) 533.2 nm. The compound further gave an emission maximum (in CN(C)C=O) of 532.8 nm; an emission maximum (in CO) of 531.6 nm; an emission maximum (in Cc1ccccc1) of 536.4 nm; an emission maximum (in ClCCl) of 534 nm; an emission maximum (in OCC(F)(F)F) of 535.2 nm; an emission maximum (in OCCO) of 536.4 nm. Further, the emission maximum is listed as 536.8 nm (in OCCOc1ccccc1) and 536.4 nm (in c1ccccc1).
Consider `CN(C)c1ccc2cc(C(/C=C/c3cn(C)c4ccccc34)=C(C#N)C#N)c(=O)oc2c1`, for which the emission maximum runs as follows: (in C1CCOC1) 584 nm; (in C1COCCO1) 568 nm; (in CN(C)C=O) 539 nm; (in CS(C)=O) 555 nm; (in ClCCl) 583 nm.
Turning to `CC(C)(C)C1Nc2ccccc2C(=O)N1c1ccccc1` (stereo unspecified), the emission maximum is, setting by setting: (in CC#N) 417 nm; (in CCCCCCCCCCCCCCCC) 388 nm; (in CO) 449 nm; (in ClC(Cl)Cl) 409 nm; (in c1ccccc1) 400 nm.
Compound `Cc1ccc2cc3c(=O)n(C)c(=O)n(C)c3nc2c1` displayed an emission maximum (in CC#N) of 405 nm; an emission maximum (in CC(C)O) of 408 nm; an emission maximum (in CCO) of 409 nm; an emission maximum (in CO) of 409 nm; an emission maximum (in ClC(Cl)Cl) of 406 nm; an emission maximum (in ClCCl) of 405 nm.
As for `O=C(c1ccc(/C(=C(/c2ccccc2)c2ccc(C(=O)c3ccc(-n4c5ccccc5c5ccccc54)cc3)cc2)c2ccccc2)cc1)c1ccc(-n2c3ccccc3c3ccccc32)cc1`, the emission maximum (in C1CCOC1) amounted to 502 nm.
As to `CC1=[N+]2C(=C(c3c4ccccc4cc4ccccc34)c3ccc(C)n3[B-]2(F)F)C=C1`, the emission maximum by setting is: (in C1CCOC1) 528 nm; (in CC#N) 524 nm; (in CCCCCC) 524 nm and 528 nm; (in CCO) 524 nm; (in CN(C)C=O) 531 nm; (in CO) 527 nm. Besides, the emission maximum runs as follows: (in CS(C)=O) 529 nm; (in Cc1ccccc1) 530 nm; (in ClC(Cl)Cl) 526 nm; (in ClCCl) 528 nm.
On to `CCCCN1C(=O)c2cc(Oc3ccc(C(C)(C)C)cc3)c3c4c(Oc5ccc(C(C)(C)C)cc5)cc5c6c(cc(Oc7ccc(C(C)(C)C)cc7)c(c7c(Oc8ccc(C(C)(C)C)cc8)cc(c2c37)C1=O)c64)C(=O)N(CCCC)C5=O`, for which the emission maximum is, setting by setting: (in ClC(Cl)Cl) 615 nm; (in ClCCl) 607 nm.
In the case of `CN(C)c1ccc(/C=C/c2cc(/C=C/c3ccc(N(C)C)cc3)nc(/C=C/c3ccc(N(c4ccccc4)c4ccccc4)cc3)n2)cc1`, the emission maximum is, setting by setting: (in C1CCOC1) 521 nm; (in CC#N) 584 nm; (in CC(C)=O) 561 nm; (in CCCCCCC) 451 nm; (in CS(C)=O) 596 nm; (in Cc1ccccc1) 480 nm. Under “in ClCCl”, this compound gave an emission maximum of 533 nm.
As for `c1ccc2c(c1)Sc1ccccc1N2c1ccc2c(c1)C1(CC1)c1cc(N3c4ccccc4Sc4ccccc43)ccc1-2`, the emission maximum (in Cc1ccccc1) amounted to 494 nm.
Turning to `COC(=O)C(Cc1ccc2oc(-c3ccc(Nc4ccccc4)cc3)nc2c1)NC(=O)OC(C)(C)C` (stereo unspecified), the emission maximum by setting is: (in C1CCCCC1) 382 nm; (in C1CCOC1) 419.01 nm; (in C1COCCO1) 410.51 nm; (in CC1CCCO1) 425.01 nm; (in CC1COC(=O)O1) 457.5 nm; (in CC#N) 452 nm. The emission maximum amounted to 439.5 nm (in CC(C)=O); 384 nm (in CC(C)CC(C)(C)C); 438 nm (in CC(C)CO); 440.51 nm (in CC(C)O); 426 nm (in CC(C)OC(C)C); 438 nm (in CC(O)CO). Further, the emission maximum is, setting by setting: (in CCC(C)CC) 382.98 nm; (in CCCCC) 382 nm; (in CCCCCC) 383.49 nm; (in CCCCCCCCC) 384.5 nm; (in CCCCCCCCCC) 385 nm; (in CCCCCCCO) 434.5 nm. In addition, the emission maximum by setting is: (in CCCCCCO) 429 nm; (in CCCCCO) 424 nm; (in CCCCO) 441.5 nm; (in CCO) 453.49 nm; (in CCOC(C)=O) 412 nm; (in CCOCC) 409.5 nm. In addition, the emission maximum (in CN(C)C=O) turned out to be 447.51 nm; the emission maximum (in CO) is 457 nm; the emission maximum (in COCCOC) is reported as 440.01 nm; the emission maximum (in CS(C)=O) is given as 459.5 nm; the emission maximum (in Cc1ccccc1) is listed as 401.49 nm; the emission maximum (in Cc1ccccc1C) is 401.49 nm. The emission maximum is, setting by setting: (in ClC(Cl)Cl) 420.01 nm; (in ClCCl) 415.51 nm; (in NC=O) 447.01 nm; (in OC1CCCCC1) 440.01 nm; (in OCCO) 443.01 nm; (in c1ccccc1) 398.5 nm.
`O=C1CC(=O)Nc2cc([N+](=O)[O-])ccc2N1` had an emission maximum (in CS(C)=O) of 403 nm.
`c1ccc2c3c(ccc2c1)-c1cccc2c1c-3cc1ccccc12` returned an emission maximum (in CCCCCCC) of 482 nm.
Turning to `CC1(C)c2ccccc2N(c2ccc3c(c2)c2ccccc2n2c4ccccc4nc32)c2ccccc21`, the emission maximum (in Cc1ccccc1) was found to be 437 nm and the emission maximum (in O=P(c1ccccc1)(c1ccccc1)c1ccccc1Oc1ccccc1P(=O)(c1ccccc1)c1ccccc1) is 447.06 nm.
Regarding `N#Cc1cc(-n2c3ccccc3c3ncccc32)c(-n2c3ccccc3c3ncccc32)cc1C#N`, the emission maximum by setting is: (in CC#N) 520.47 nm; (in CCCCCC) 443.72 nm; (in Cc1ccccc1) 450.7 nm; (in ClCCl) 476.51 nm; (in c1cc(-n2c3ccccc3c3ccccc32)cc(-n2c3ccccc3c3ccccc32)c1) 477.27 nm.
